From ChEMBL document CHEMBL1146155, “NC-100717: a versatile RGD peptide scaffold for angiogenesis imaging” (Bioorg Med Chem Lett, 2006)
*1 amine or outer side, *2 acyl side, *3 side chain or, on linkers, in order; H or OH if unused. Where a SMILES comes first, the peptide text is derived from it. Bridges are numbered along the chain shown (N, C = ends). Side-chain parts run from the residue outwards. [ ]: non-standard residue; d: D form. The star is where a group is joined. X1 = O=C(COCC(=O)*)NCCOCCOCCOCCOCCOCCNC(=O)CO/N=C/c1ccc(F)cc1; DOTA = O=C(O)CN1CCN(CC(=O)O)CCN(CC(=O)*)CCN(CC(=O)O)CC1; Gly(2R-SCH2CO) = O=C([C@H](N[*:1])SCC(=O)[*:3])[*:2]; X3 = C/C(=N\O)C(C)(C)NCCC(CCNC(C)(C)/C(C)=N/O)CCN*; Gly(αR-SH) = O=C([C@H](N[*:1])S[*:3])[*:2]; Glutaryl = O=C(CCCC(=O)[*:2])[*:1]; X2 = NC(=O)COCC(=O)NCCOCCOCCOCCN*

Assay: Displacement of [125I]echistatin from AlphaVbeta3/AlphaVbeta5 integrin receptor in EAHy 926 cells
Type: cell-based, Homo sapiens

Structure (SMILES) | Ki [nM]
N=C(N)NCCC[C@@H]1NC(=O)[C@@H]2NC(=O)[C@H](CCCCNC(=O)COCC(=O)NCCOCCOCCOCCOCCOCCNC(=O)CO/N=C/c3ccc(F)cc3)NC(=O)CS[C@H](C(=O)NCCOCCOCCOCCNC(=O)COCC(N)=O)NC(=O)[C@H](Cc3ccccc3)NC(=O)[C@H](NC(=O)[C@H](CC(=O)O)NC(=O)CNC1=O)SS2 (K(X1)[Gly(αR-SH)]RGD[Gly(αR-SH)]F[Gly(2R-SCH2CO)]-X2; disulfide 2-6; lactam N-8) | 8.2
N=C(N)NCCC[C@@H]1NC(=O)[C@@H]2NC(=O)[C@H](CCCCNC(=O)CN3CCN(CC(=O)O)CCN(CC(=O)O)CCN(CC(=O)O)CC3)NC(=O)CS[C@H](C(=O)NCCOCCOCCOCCNC(=O)COCC(N)=O)NC(=O)[C@H](Cc3ccccc3)NC(=O)[C@H](NC(=O)[C@H](CC(=O)O)NC(=O)CNC1=O)SS2 (K(DOTA)[Gly(αR-SH)]RGD[Gly(αR-SH)]F[Gly(2R-SCH2CO)]-X2; disulfide 2-6; lactam N-8) | 3.2
N=C(N)NCCC[C@@H]1NC(=O)[C@@H]2NC(=O)[C@H](CCCCN)NC(=O)CS[C@H](C(=O)NCCOCCOCCOCCNC(=O)COCC(N)=O)NC(=O)[C@H](Cc3ccccc3)NC(=O)[C@H](NC(=O)[C@H](CC(=O)O)NC(=O)CNC1=O)SS2 (K[Gly(αR-SH)]RGD[Gly(αR-SH)]F[Gly(2R-SCH2CO)]-X2; disulfide 2-6; lactam N-8) | 6.8
C/C(=N\O)C(C)(C)NCCC(CCNC(=O)CCCC(=O)NCCCC[C@@H]1NC(=O)CS[C@H](C(=O)NCCOCCOCCOCCNC(=O)COCC(N)=O)NC(=O)[C@H](Cc2ccccc2)NC(=O)[C@@H]2NC(=O)[C@H](CC(=O)O)NC(=O)CNC(=O)[C@H](CCCNC(=N)N)NC(=O)[C@H](NC1=O)SS2)CCNC(C)(C)/C(C)=N/O (K([Glutaryl-X3])[Gly(αR-SH)]RGD[Gly(αR-SH)]F[Gly(2R-SCH2CO)]-X2; disulfide 2-6; lactam N-8) | 3.1
CC[N+]1=C(/C=C/C=C/C=C2/N(CCCCCC(=O)NCCCC[C@@H]3NC(=O)CS[C@H](C(=O)NCCOCCOCCOCCNC(=O)COCC(N)=O)NC(=O)[C@H](Cc4ccccc4)NC(=O)[C@@H]4NC(=O)[C@H](CC(=O)O)NC(=O)CNC(=O)[C@H](CCCNC(=N)N)NC(=O)[C@H](NC3=O)SS4)c3ccc4c(S(=O)(=O)O)cc(S(=O)(=O)O)cc4c3C2(C)C)C(C)(C)c2c1ccc1c(S(=O)(=O)[O-])cc(S(=O)(=O)O)cc21 | 0.75
